For 110 compounds, flash point results are on record in a flash point compilation (Sun et al. 2020).

Structures can show the parent of a compound that is named as a salt.

With `CC(C)[N+](=O)[O-]` [2-Nitropropane], the flash point was found to be 39.00 °C. As for `CC=O` [Acetaldehyde], the flash point is -38.00 °C. On the same count and under the same terms, next, `CC(=O)O` [Acetic acid]: 43.00 °C; `CC(=O)OC(C)=O` [Acetic anhydride]: 54.00 °C. Same read-out and setting: next, `CC(C)=O` [Acetone]: -18.00 °C; `O=C(O)CCCCC(=O)O` [Adipic acid]: 191.00 °C; `N#CCCCCC#N` [Adiponitrile]: 93.00 °C. Still for that read-out and setting: next, `C=CCBr` [Allyl bromide]: -1.00 °C; `COc1ccccc1` [Anisole]: 52.00 °C. As for `c1ccc2cc3ccccc3cc2c1` [Anthracene], the flash point was found to be 121.00 °C. The compound `O=C1c2ccccc2C(=O)c2ccccc21` [Anthraquinone] came in with a flash point of 185.00 °C. Same read-out and setting: in the case of `O=Cc1ccccc1` [Benzaldehyde] it was 64.00 °C; in that of `c1ccccc1` [Benzene], -11.00 °C; in that of `O=C(O)c1ccccc1` [Benzoic acid], 121.00 °C.

Regarding `FC(F)(F)c1ccccc1` [Benzotrifluoride], the flash point is 12.00 °C.

For the compound `CC(=O)OCc1ccccc1` [Benzyl acetate], the flash point was 102.00 °C. The same measure, in the same setting: in the case of `OCc1ccccc1` [Benzyl alcohol] it was 101.00 °C.

In turn, `O=C(OCc1ccccc1)c1ccccc1` [Benzyl benzoate] returned a flash point of 148.00 °C. The same measure, in the same setting: in the case of `ClCc1ccccc1` [Benzyl chloride] it was 67.00 °C; in that of `SCc1ccccc1` [Benzyl mercaptan], 70.00 °C.

In the case of `C1CCC(C2CCCCC2)CC1` [Bicyclohexyl], the flash point amounted to 74.00 °C. With `C=COCCCC` [Butyl vinyl ether], the flash point was -9.00 °C. Same read-out and setting: in the case of `CC12CCC(CC1=O)C2(C)C` (stereo not given) [Camphor] it was 66.00 °C; in that of `Clc1ccccc1` [Chlorobenzene], 29.00 °C; in that of `FC(F)=C(F)Cl` [Chlorotrifluoroethylene], -27.00 °C.

`O=CC=Cc1ccccc1` [Cinnamaldehyde] showed a flash point of 49.00 °C. `NC1CCCCC1` [Cyclohexylamine] came in with a flash point of 32.00 °C. The same measure, in the same setting: next, `c1ccc(C2CCCCC2)cc1` [Cyclohexylbenzene]: 99.00 °C. On the same count and under the same terms, next, `C1CCCC1` [Cyclopentane]: -7.00 °C. Same read-out and setting: next, `CCCCCCCCOC(=O)c1ccccc1C(=O)OCCCCCCCC` [Di-n-Octyl phthalate]: 219.00 °C. `CCCCCCC(C)OC(=O)c1ccccc1C(=O)OC(C)CCCCCC` (stereo not given) [Di-sec-Octyl phthalate]: the flash point came out at 218.00 °C. Same read-out and setting: next, `OCCOCCO` [Diethylene glycol]: 124.00 °C; `CC(C)c1ccccc1C(C)C` [Diisopropyl benzene]: 76.00 °C; `CS(C)=O` [Dimethyl sulphoxide]: 95.00 °C. The compound `CN(C)C=O` [Dimethylformamide] displayed a flash point of 58.00 °C. The same measure, in the same setting: in the case of `c1ccc(Nc2ccccc2)cc1` [Diphenylamine] it was 153.00 °C; in that of `c1ccc(Cc2ccccc2)cc1` [Diphenylmethane], 130.00 °C. Still for that read-out and setting: next, `CCO` [Ethanol]: 12.00 °C; `CCOC(C)=O` [Ethyl acetate]: -4.40 °C; `C=CC(=O)OCC` [Ethyl acrylate]: 16.00 °C. The same measure, in the same setting: in the case of `CCCC(=O)OCC` [Ethyl butyrate] it was 26.00 °C.

Consider `O=CO` [Formic acid], for which the flash point came to 69.00 °C. On the same count and under the same terms, in the case of `OCc1ccco1` [Furfuryl alcohol] it was 75.00 °C; in that of `Clc1c(Cl)c(Cl)c(Cl)c(Cl)c1Cl` [Hexachlorobenzene], 242.00 °C. Take `CCCCCC` [Hexane]: the flash point was -22.00 °C.

The compound `COc1ccc(O)cc1` [Hydroquinone monomethyl ether] came in with a flash point of 131.00 °C. As for `CC(O)C#N` (stereo not given) [Lactonitrile], the flash point is 77.00 °C. Still for that read-out and setting: next, `O=C1C=CC(=O)O1` [Maleic anhydride]: 102.00 °C; `CC(=O)C=C(C)C` [Mesityl oxide]: 31.00 °C. Same read-out and setting: in the case of `COC(C)=O` [Methyl acetate] it was -9.00 °C; in that of `CO` [Methyl alcohol], 12.00 °C. On the same count and under the same terms, in the case of `CCCCC(C)=O` [Methyl butyl ketone] it was 35.00 °C; in that of `COC` [Methyl ether], -41.00 °C; in that of `COC=O` [Methyl formate], -19.00 °C. The compound `COC(=O)c1ccccc1O` [Methyl salicylate] returned a flash point of 101.00 °C.

As to `C=COC` [Methyl vinyl ether], the flash point was -51.00 °C.

With `CN` [Monomethylamine], the flash point is -10.00 °C. The compound `CCN(CC)c1ccccc1` [N,N-Diethylaniline ] had a flash point of 85.00 °C.

`CCN1CCOCC1` [N-Ethylmorpholine]: the flash point is 32.00 °C. On the same count and under the same terms, in the case of `O=[N+]([O-])c1ccccc1` [Nitrobenzene] it was 88.00 °C. On the same count and under the same terms, in the case of `CC[N+](=O)[O-]` [Nitroethane] it was 38.00 °C; in that of `CCCCCCCCCc1ccccc1O` [Nonyl phenol], 141.00 °C.

As for `CCCCCCCC/C=C\CCCCCCCC(=O)O` [Oleic acid], the flash point is 189.00 °C.

In turn, `CC(=O)Oc1ccccc1` [Phenyl acetate] returned a flash point of 80.00 °C. As for `c1ccc(Oc2ccccc2)cc1` [Phenyl ether], the flash point came out at 96.00 °C.

With `O=C1OC(=O)c2ccccc21` [Phthalic anhydride], the flash point turned out to be 151.00 °C. Compound `C1CCNCC1` [Piperidine] returned a flash point of 16.00 °C.

In turn, `C#CCO` [Propargyl alcohol] displayed a flash point of 36.00 °C.

`CC1COC(=O)O1` (stereo not given) [Propylene carbonate]: the flash point is 135.00 °C. On the same count and under the same terms, in the case of `C=CC` [Propylene] it was -108.00 °C; in that of `O=Cc1ccccc1O` [Salicylaldehyde], 78.00 °C.

Compound `C=Cc1ccccc1` [Styrene] returned a flash point of 31.00 °C. Same read-out and setting: next, `N#CCCC#N` [Succinonitrile]: 132.00 °C; `CCCCN(CCCC)CCCC` [Tri-n-butyl amine]: 86.00 °C. Still for that read-out and setting: next, `OCCOCCOCCO` [Triethylene glycol]: 177.00 °C; `NCCNCCNCCN` [Triethylene-tetramine]: 135.00 °C; `CCCN(CCC)CCC` [Tripropylamine]: 41.00 °C.

Take `C=COC(C)=O` [Vinyl acetate]: the flash point was -8.00 °C. With `C=C(Cl)Cl` [Vinylidene chloride], the flash point is -15.00 °C. On the same count and under the same terms, in the case of `O=[N+]([O-])c1cccc2ccccc12` [alpha-Nitronaphthalene] it was 164.00 °C. As to `CC(=O)OCCC(C)C` [iso-Amyl acetate], the flash point is 23.00 °C. Same read-out and setting: in the case of `CC(C)CCOC=O` [iso-Amyl formate] it was 26.00 °C. In the case of `CC(C)Cc1ccccc1` [iso-Butyl benzene], the flash point was determined as 52.00 °C. On to `CCC(C)C` [iso-Pentane], for which the flash point is -51.00 °C. Still for that read-out and setting: next, `C=C(C)OC(C)=O` [iso-Propenyl acetate]: 16.00 °C; `CC(=O)OC(C)C` [iso-Propyl acetate]: 4.00 °C. On the same count and under the same terms, next, `CC(C)OC(=O)c1ccccc1` [iso-Propyl benzoate]: 99.00 °C; `Cc1cccc(O)c1` [m-Cresol]: 94.00 °C; `CCCCOC(C)=O` [n-Butyl acetate]: 27.00 °C.

On to `CCCCc1ccccc1` [n-Butyl benzene], for which the flash point was determined as 71.00 °C. Same read-out and setting: next, `CCCCCl` [n-Butyl chloride]: 7.00 °C; `CCCC(=O)O` [n-Butyric acid]: 66.00 °C; `CCCC(=O)OC(=O)CCC` [n-Butyric anhydride]: 88.00 °C. The same measure, in the same setting: next, `CCCC#N` [n-Butyronitrile]: 26.00 °C.

In turn, `CCNc1ccccc1` [n-Ethyl aniline] had a flash point of 85.00 °C. Still for that read-out and setting: next, `CCCCCCO` [n-Hexanol]: 60.00 °C. The same measure, in the same setting: in the case of `CCCO` [n-Propyl alcohol] it was 15.00 °C; in that of `Cc1ccccc1O` [o-Cresol], 81.00 °C; in that of `Clc1ccccc1Cl` [o-Dichlorobenzene], 66.00 °C. On to `O=[N+]([O-])c1ccccc1-c1ccccc1` [o-Nitrobiphenyl], for which the flash point was 143.00 °C.

`Oc1ccccc1-c1ccccc1` [o-Phenyl phenol]: the flash point is 124.00 °C. The same measure, in the same setting: next, `Cc1ccccc1C` [o-Xylene]: 32.00 °C. Same read-out and setting: next, `Oc1ccc(Cl)cc1` [p-Chlorophenol]: 121.00 °C; `Cc1ccc(C(C)C)cc1` [p-Cymene]: 47.00 °C; `C=C(C)C1CC=C(C)CC1` (stereo not given) [p-Mentha-1,8-diene]: 45.00 °C. Compound `Cc1ccc([N+](=O)[O-])cc1` [p-Nitrotoluene] displayed a flash point of 106.00 °C. Compound `Nc1ccc(N)cc1` [p-Phenylenediamine] yielded a flash point of 156.00 °C.

`CCC(C)OC(C)=O` (stereo not given) [sec-Butyl acetate]: the flash point was found to be 31.00 °C. Still for that read-out and setting: next, `CC(C)(C)OOC(=O)c1ccccc1` [tert-Butyl perbenzoate]: 88.00 °C.

The source holds these as a separate data set.
Compound `Cc1ccc(C)c(C)c1C` [1,2,3,4-TETRAMETHYLBENZENE] came in with a flash point of 68.0 °C.
